The record followed here is article PMC12282428 (Virologica Sinica, 2025).

What is called IC50 is the concentration that inhibits the measured activity by half.

Each structure is given as a SMILES string.

The assay concerns the target T1, PEDV RdRp (Nsp12) (Porcine epidemic diarrhea virus, UniProt K4NS01).
T1 sequence (K4NS01 4101-5027): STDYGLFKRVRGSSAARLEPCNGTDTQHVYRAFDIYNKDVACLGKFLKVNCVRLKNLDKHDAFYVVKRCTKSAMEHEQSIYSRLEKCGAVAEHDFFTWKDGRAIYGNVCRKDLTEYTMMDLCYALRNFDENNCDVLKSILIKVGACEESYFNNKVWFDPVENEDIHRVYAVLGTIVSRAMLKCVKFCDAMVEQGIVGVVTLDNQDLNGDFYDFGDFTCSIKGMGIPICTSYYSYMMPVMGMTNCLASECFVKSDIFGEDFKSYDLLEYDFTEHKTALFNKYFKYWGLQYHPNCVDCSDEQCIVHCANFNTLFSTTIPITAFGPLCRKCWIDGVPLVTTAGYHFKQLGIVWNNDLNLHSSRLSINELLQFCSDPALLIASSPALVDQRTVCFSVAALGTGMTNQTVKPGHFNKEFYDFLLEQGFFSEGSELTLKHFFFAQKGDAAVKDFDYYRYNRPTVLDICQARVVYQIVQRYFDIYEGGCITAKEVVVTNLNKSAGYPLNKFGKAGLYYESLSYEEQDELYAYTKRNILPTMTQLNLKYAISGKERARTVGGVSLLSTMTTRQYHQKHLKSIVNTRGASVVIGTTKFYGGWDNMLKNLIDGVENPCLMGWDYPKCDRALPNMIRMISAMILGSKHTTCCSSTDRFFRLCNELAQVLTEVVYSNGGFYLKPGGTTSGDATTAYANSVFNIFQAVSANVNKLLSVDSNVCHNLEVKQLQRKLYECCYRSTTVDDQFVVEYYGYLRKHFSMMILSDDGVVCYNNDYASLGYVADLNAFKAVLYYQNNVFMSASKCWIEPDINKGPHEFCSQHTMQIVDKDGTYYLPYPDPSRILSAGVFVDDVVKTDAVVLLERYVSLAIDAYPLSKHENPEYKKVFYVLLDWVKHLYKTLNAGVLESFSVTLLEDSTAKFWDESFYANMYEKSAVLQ
Kind of assay: CoV-RdRp-Gluc luciferase reporter assay in transfected HEK-293T cells. In kind it is cell-based.

For `CC(C)/N=c1\cc2n(-c3ccc(Cl)cc3)c3ccccc3nc-2cc1Nc1ccc(Cl)cc1` [clofazimine], the IC50 was found to be 136 nM.
